# According to PubChem BioAssay AID504352 (Southern Research Specialized Biocontainment Screening …, 2011):
# Calls of active or inactive are those of the source.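 How the source made its calls: active means compounds cutting HIV-1 replication by at least half at any tested dose; inactive means the rest.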
# System: MAGI-CCR5 cells, HIV-1 BaL, beta-gal luminescence, 48 h
# Experiment: R5 HIV-1 replication inhibitors in MAGI cells, MAGI-CCR5 cells, beta-gal luminescence, 2% serum, set 3 (AID 504352)
row,IC50,Compound
1,32.1 µM,COc1ccc(-n2cccc2/C=C2/C(=N)N3C(=NC2=O)SN=C3S(C)(=O)=O)cc1Cl
2,38.9 µM,CS(=O)(=O)C1=NSC2=NC(=O)/C(=C\c3cccn3-c3cccc(F)c3)C(=N)N21
3,3.68 µM,Cc1c2c(=O)n(-c3nc4ccccc4s3)nc-2cc(O)n1Cc1ccccc1Cl
4,36.1 µM,Cc1ccc(-n2cccc2/C=C2/C(=N)N3C(=NC2=O)SN=C3S(C)(=O)=O)cc1C
5,24.3 µM,CCOc1ccc(-n2cccc2/C=C2/C(=N)N3C(=NC2=O)SN=C3S(C)(=O)=O)cc1
6,27.4 µM,O=C(O)CCCN1C(=O)/C(=C/c2ccc(-c3ccc(Cl)c(Cl)c3)o2)SC1=S
7,43.5 µM,CS(=O)(=O)C1=NSC2=NC(=O)/C(=C\c3cccn3-c3ccc(Br)cc3)C(=N)N21
8,36.2 µM,CCc1ccc(-n2cccc2/C=C2/C(=N)N3C(=NC2=O)SN=C3S(C)(=O)=O)cc1
9,4.1 µM,COc1ccc(Cn2c(O)cc3nn(-c4nc5ccccc5s4)c(=O)c-3c2C)cc1
10,35.1 µM,Cc1ccc(-n2cccc2/C=C2/C(=N)N3C(=NC2=O)SN=C3S(C)(=O)=O)cc1
11,1.95 µM,Cc1c2c(=O)n(-c3nc4ccccc4s3)nc-2cc(O)n1Cc1cccnc1
12,4.4 µM,Cc1c2c(=O)n(-c3nc4ccccc4s3)nc-2cc(O)n1Cc1ccncc1
13,41.7 µM,CS(=O)(=O)C1=NSC2=NC(=O)/C(=C\c3cccn3-c3ccc(Cl)cc3)C(=N)N21
14,3.89 µM,Cc1c2c(=O)n(-c3nc4ccccc4s3)nc-2cc(O)n1Cc1ccc(F)cc1
15,52.1 µM,CS(=O)(=O)C1=NSC2=NC(=O)/C(=C\c3cccn3-c3cccc(Cl)c3)C(=N)N21
16,2.27 µM,Cc1c2c(=O)n(-c3nc4ccccc4s3)nc-2cc(O)n1Cc1cccs1
17,33.7 µM,CS(=O)(=O)C1=NSC2=NC(=O)/C(=C\c3cccn3-c3cc(Cl)cc(Cl)c3)C(=N)N21
18,35.1 µM,CS(=O)(=O)C1=NSC2=NC(=O)/C(=C\c3cccn3-c3ccc(F)cc3)C(=N)N21
19,37 µM,COc1cccc(-n2cccc2/C=C2/C(=N)N3C(=NC2=O)SN=C3S(C)(=O)=O)c1
20,42.1 µM,CS(=O)(=O)C1=NSC2=NC(=O)/C(=C\c3cccn3-c3ccc(Cl)c(Cl)c3)C(=N)N21
21,47.3 µM,CS(=O)(=O)C1=NSC2=NC(=O)/C(=C\c3cccn3-c3cccc(C(F)(F)F)c3)C(=N)N21

# Further lines, the compound ahead of its results:
row,Compound,IC50
1,COc1ccc(-c2ccc(/C=C3\SC(=S)N(CCCC(=O)O)C3=O)o2)cc1,56.5 µM
2,CCOC(=O)C1=C(C)N=c2sc(=Cc3ccc(OCC(=O)O)cc3)c(=O)n2C1c1ccccc1OC (stereo not drawn),45.1 µM
3,O=C(O)CCCN1C(=O)/C(=C\c2ccc(-c3cccc(Cl)c3)o2)SC1=S,15.2 µM
4,O=C(O)CCCN1C(=O)/C(=C\c2ccc(-c3ccc(Br)cc3)o2)SC1=S,> 100 µM (inactive)
5,O=C(O)CCC(C(=O)O)N1C(=O)/C(=C\c2ccco2)SC1=S (stereo not drawn),> 100 µM (inactive)
6,Cc1c2c(=O)n(-c3nc4ccccc4s3)nc-2cc(O)n1C1CC1,0.56 µM
7,CCOC(=O)C1=C(C)N=c2sc(=Cc3ccc(OCC(=O)O)cc3)c(=O)n2C1c1ccc(F)cc1 (stereo not drawn),36.1 µM
8,Nc1sc2ccccc2[n+]1Cc1ccc(C(=O)O)cc1,> 100 µM (inactive)
9,O=C(O)c1ccc(C2Nc3ccc(S(=O)(=O)Nc4cc(Cl)ccc4Cl)cc3C3C=CCC32)cc1 (stereo not drawn),1.68 µM
10,CCOC(=O)C1=C(C)N=c2s/c(=C\c3ccc(OCC(=O)O)cc3)c(=O)n2C1c1ccc(Cl)cc1 (stereo not drawn),38.1 µM
11,O=C(O)CCCN1C(=O)/C(=C/c2ccc(-c3cccc(C(F)(F)F)c3)o2)SC1=S,32.4 µM
12,Cc1ccc(-c2ccc(/C=C3\SC(=S)N(CCCC(=O)O)C3=O)o2)cc1,10.9 µM
13,CCOC(=O)C1=C(C)N=c2sc(=Cc3ccc(OCC(=O)O)cc3)c(=O)n2C1c1ccc(OC)cc1OC (stereo not drawn),44.7 µM
14,Cc1c2c(=O)n(-c3nc4ccccc4s3)nc-2cc(O)n1CCc1cccs1,3.98 µM
15,O=C(O)CCCN1C(=O)/C(=C/c2cc3ccccc3o2)SC1=S,7.55 µM
16,Cc1c2c(=O)n(-c3nc4ccccc4s3)nc-2cc(O)n1CCC(C)C,2.16 µM

row,Compound,IC50
1,O=C(O)c1ccc([C@@H]2Nc3ccc(S(=O)(=O)Nc4cccc5ccccc45)cc3[C@@H]3C=CC[C@@H]32)cc1,3.71 µM
2,O=C(O)CCCN1C(=O)/C(=C\c2ccc(-c3ccc(F)cc3)o2)SC1=S,37 µM
3,O=C(O)c1ccc(C[n+]2c(-c3ccc([N+](=O)[O-])cc3)csc2Nc2ccccc2)cc1,15 µM
4,CC1=C(C(=O)OC(C)C)C(c2ccc(Cl)cc2)n2c(s/c(=C\c3ccc(OCC(=O)O)cc3)c2=O)=N1 (stereo not drawn),> 100 µM (inactive)
5,COc1ccccc1Cn1c(O)cc2nn(-c3nc4ccccc4s3)c(=O)c-2c1C,1.9 µM
6,O=C(O)CCCN1C(=O)/C(=C\c2ccc(-c3ccc(Cl)cc3)o2)SC1=S,2.88 µM
7,COc1ccccc1NS(=O)(=O)c1ccc2c(c1)C1C=CCC1C(c1ccc(C(=O)O)cc1)N2 (stereo not drawn),2.87 µM
8,Cc1c2c(=O)n(-c3nc4ccccc4s3)nc-2cc(O)n1CCc1ccc(O)cc1,2.83 µM
9,CCOC(=O)C1=C(C)N=c2sc(=Cc3ccc(OCC(=O)O)cc3)c(=O)n2C1c1ccccc1 (stereo not drawn),43.6 µM
10,COc1cccc(C2C(C(=O)Nc3ccccc3)=C(C)N=c3sc(=Cc4ccc(OCC(=O)O)cc4)c(=O)n32)c1 (stereo not drawn),55.4 µM
11,CCOC(=O)C1=C(C)N=c2s/c(=C\c3ccc(OCC(=O)O)cc3)c(=O)n2C1c1ccc(OC)c(OCC)c1 (stereo not drawn),33.6 µM
12,CCOC(=O)C1=C(c2ccccc2)N=c2s/c(=C\c3ccc(OCC(=O)O)cc3)c(=O)n2C1c1cccc(OC)c1 (stereo not drawn),6.6 µM
13,COc1ccc(CCn2c(O)cc3nn(-c4nc5ccccc5s4)c(=O)c-3c2C)cc1,13.4 µM
14,CCOC(=O)C1=C(C)N=c2sc(=Cc3ccc(OCC(=O)O)cc3)c(=O)n2C1c1cc(OC)c(OC)c(OC)c1 (stereo not drawn),> 100 µM (inactive)
15,CCc1ccc(-c2ccc(/C=C3\SC(=S)N(CCCC(=O)O)C3=O)o2)cc1,3.43 µM
16,O=C(O)c1ccc(C[n+]2c(-c3ccccc3)csc2Nc2ccccc2)cc1,49.5 µM
